Assay results as given in patent publication EP4631959A2, “NOVEL MINIGASTRIN-DERIVED CHOLECYSTOKININ 2 RECEPTOR BINDING MOLECULES FOR IMAGING AND TARGETED RADIOTHERAPY” (priority 2022, dated 2024).
Where two headings read alike, the source gives them in different places. Starred links: 1 amine or outer side, 2 acyl side, 3 side chain; linkers in the order of their positions; H or OH if unused. Non-standard residues stand in square brackets, D forms with d. Residues, ends and D or L forms follow the SMILES beside them. *: point of attachment. DOTAGA = O=C(O)CN1CCN(CC(=O)O)CCN(C(CCC(=O)*)C(=O)O)CCN(CC(=O)O)CC1; X2 = O=C(O)CN1CCN(CC(=O)O)CCN([C@H](CCC(=O)*)C(=O)O)CCN(CC(=O)O)CC1; Benzoyl(4-SiFtBu2) = CC(C)(C)[Si](F)(c1ccc(C(=O)*)cc1)C(C)(C)C; d(γGlu) = O=C(O)[C@@H](CCC(=O)[*:2])N[*:1]; Nle = CCCC[C@H](N)C(=O)O; dDap = NC[C@@H](N)C(=O)O

What was measured:
[1] = target: T1, CCK-2R (Rattus norvegicus, UniProt P30553); assay: Determination of IC50: CCK-2R affinity on AR4-2J cells, competition with [^177Lu]Lu-DOTA-PP-F11N; type: binding
T1 construct: The CCK-2R expressing rat pancreatic tumor cells AR4-2J; host or cells: AR4-2J rat pancreatic tumor cells
T1 sequence (P30553 1-452): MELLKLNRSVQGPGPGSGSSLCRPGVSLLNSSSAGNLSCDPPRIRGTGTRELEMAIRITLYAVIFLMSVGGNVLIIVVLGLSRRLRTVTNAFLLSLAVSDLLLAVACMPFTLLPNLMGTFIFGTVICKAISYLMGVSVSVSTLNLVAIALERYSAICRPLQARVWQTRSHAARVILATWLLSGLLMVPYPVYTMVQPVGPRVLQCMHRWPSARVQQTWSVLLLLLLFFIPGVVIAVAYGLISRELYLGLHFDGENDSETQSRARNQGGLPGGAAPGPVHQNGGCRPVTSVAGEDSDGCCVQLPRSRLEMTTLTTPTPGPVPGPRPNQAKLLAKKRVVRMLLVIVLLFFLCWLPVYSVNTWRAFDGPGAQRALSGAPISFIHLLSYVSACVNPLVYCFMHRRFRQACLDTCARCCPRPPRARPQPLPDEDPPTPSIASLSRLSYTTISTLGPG
Procedure, shortened: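 Competitive displacement of 0.3 pmol/well [177Lu]Lu-DOTA-PP-F11N by compounds (10^-10 to 10^-4 M) on AR4-2J cells in BSA-supplemented medium, 3 h at 37 °C. Free label was collected from medium plus PBS rinse, and cell-bound label was recovered with 1 M NaOH, both measured by γ-counter. Each IC50 was determined twice, in triplicate.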

[2] = n-Octanol-PBS distribution coefficient (logD7.4); type: physicochemical; conditions: pH = 7.4, ^177Lu-labeled
Description: Approximately 1 MBq of the labeled tracer was dissolved in 1 mL of a 1/1 mixture (v/v) of phosphate buffered saline (PBS, pH = 7.4) and n-octanol in an Eppendorf tube (1.5 mL). After vigorous mixing of the suspension for 3 min at rt, the vial was centrifuged at 9,000 rpm for 5 min (Biofuge 15, Heraeus Sepatech, Osterode, Germany) and 200 µL aliquots of both layers were measured in a γ-counter. The experiment was repeated at least five times.

[3] = AR4-2J cells; ^natLu-labeled; read-out: IC50 [nM] (n = 3), ^natLu-labeled
[4] = read-out: IC50 [nM] (n = 3), ^natLu-labeled; AR4-2J cells; ^natLu-labeled

Row | Structure (SMILES) | IC50 [1, 3] [nM] | logD7.4 (n ≥ 5), ^177Lu-labeled [2] | IC50 [1, 4] [nM]
1 | CCCC[C@H](NC(=O)[C@H](Cc1c[nH]c2ccccc12)NC(=O)CNC(=O)[C@H](Cc1ccc(O)cc1)NC(=O)[C@H](C)NC(=O)CC[C@@H](NC(=O)CC[C@@H](NC(=O)[C@@H](CNC(=O)c1ccc([Si](F)(C(C)(C)C)C(C)(C)C)cc1)NC(=O)CC[C@@H](NC(=O)CC[C@@H](NC(=O)CC[C@@H](NC(=O)CC[C@@H](NC(=O)CC[C@H](C(=O)O)N1CCN(CC(=O)O)CCN(CC(=O)O)CCN(CC(=O)O)CC1)C(=O)O)C(=O)O)C(=O)O)C(=O)O)C(=O)O)C(=O)O)C(=O)N[C@@H](CC(=O)O)C(=O)N[C@@H](Cc1ccccc1)C(N)=O [DOTAGA-MG-SiFA-15, DOTAGA-γ-glu-[dap(SiFA)^4]γ-F11N] ({X2-d(γGlu)-d(γGlu)-d(γGlu)-d(γGlu)}-[dDap](Benzoyl(4-SiFtBu2))[d(γGlu)][d(γGlu)]AYGW[Nle]DF-NH2) | 89.7 ± 14.5 | −2.34 ± 0.05 | –
2 | CCCC[C@H](NC(=O)[C@H](Cc1c[nH]c2ccccc12)NC(=O)CNC(=O)[C@H](Cc1ccc(O)cc1)NC(=O)[C@H](C)NC(=O)CC[C@@H](NC(=O)CC[C@@H](NC(=O)CC[C@@H](NC(=O)[C@@H](CNC(=O)c1ccc([Si](F)(C(C)(C)C)C(C)(C)C)cc1)NC(=O)CC[C@@H](NC(=O)CC[C@@H](NC(=O)CC[C@@H](NC(=O)CC[C@H](C(=O)O)N1CCN(CC(=O)O)CCN(CC(=O)O)CCN(CC(=O)O)CC1)C(=O)O)C(=O)O)C(=O)O)C(=O)O)C(=O)O)C(=O)O)C(=O)N[C@@H](CC(=O)O)C(=O)N[C@@H](Cc1ccccc1)C(N)=O [DOTAGA-MG-SiFA-16, DOTAGA-γ-glu-[dap(SiFA)^3]γ-F11N] ({X2-d(γGlu)-d(γGlu)-d(γGlu)}-[dDap](Benzoyl(4-SiFtBu2))[d(γGlu)][d(γGlu)][d(γGlu)]AYGW[Nle]DF-NH2) | 68.5 ± 11.4 | −2.57 ± 0.06 | –
3 | CCCC[C@H](NC(=O)[C@H](Cc1c[nH]c2ccccc12)NC(=O)CNC(=O)[C@H](Cc1ccc(O)cc1)NC(=O)[C@H](C)NC(=O)CC[C@@H](NC(=O)CC[C@@H](NC(=O)CC[C@@H](NC(=O)CC[C@@H](NC(=O)[C@@H](CNC(=O)c1ccc([Si](F)(C(C)(C)C)C(C)(C)C)cc1)NC(=O)CC[C@@H](NC(=O)CC[C@@H](NC(=O)CCC(C(=O)O)N1CCN(CC(=O)O)CCN(CC(=O)O)CCN(CC(=O)O)CC1)C(=O)O)C(=O)O)C(=O)O)C(=O)O)C(=O)O)C(=O)O)C(=O)N[C@@H](CC(=O)O)C(=O)N[C@@H](Cc1ccccc1)C(N)=O (stereo partly drawn) [DOTAGA-MG-SiFA-17, DOTAGA-γ-glu-[dap(SiFA)^2]γ-F11N] ({DOTAGA-d(γGlu)-d(γGlu)}-[dDap](Benzoyl(4-SiFtBu2))[d(γGlu)][d(γGlu)][d(γGlu)][d(γGlu)]AYGW[Nle]DF-NH2) | – | −2.26 ± 0.05 | 51.3 ± 9.3
4 | CCCC[C@H](NC(=O)[C@H](Cc1c[nH]c2ccccc12)NC(=O)CNC(=O)[C@H](Cc1ccc(O)cc1)NC(=O)[C@H](C)NC(=O)CC[C@@H](NC(=O)CC[C@@H](NC(=O)CC[C@@H](NC(=O)CC[C@@H](NC(=O)CC[C@@H](NC(=O)[C@@H](CNC(=O)c1ccc([Si](F)(C(C)(C)C)C(C)(C)C)cc1)NC(=O)CC[C@@H](NC(=O)CCC(C(=O)O)N1CCN(CC(=O)O)CCN(CC(=O)O)CCN(CC(=O)O)CC1)C(=O)O)C(=O)O)C(=O)O)C(=O)O)C(=O)O)C(=O)O)C(=O)N[C@@H](CC(=O)O)C(=O)N[C@@H](Cc1ccccc1)C(N)=O (stereo partly drawn) [DOTAGA-MG-SiFA-18, DOTAGA-γ-glu-[dap(SiFA)^1]γ-F11N] ({DOTAGA-d(γGlu)}-[dDap](Benzoyl(4-SiFtBu2))[d(γGlu)][d(γGlu)][d(γGlu)][d(γGlu)][d(γGlu)]AYGW[Nle]DF-NH2) | – | −2.50 ± 0.02 | 33 ± 11.1
5 | CCCC[C@H](NC(=O)[C@H](Cc1c[nH]c2ccccc12)NC(=O)CNC(=O)[C@H](Cc1ccc(O)cc1)NC(=O)[C@H](C)NC(=O)[C@@H](CCC(=O)O)NC(=O)[C@@H](CCC(=O)O)NC(=O)[C@@H](CCC(=O)O)NC(=O)[C@@H](CCC(=O)O)NC(=O)[C@@H](CCC(=O)O)NC(=O)[C@@H](CCC(=O)O)NC(=O)[C@@H](CCC(=O)O)NC(=O)[C@@H](CNC(=O)c1ccc([Si](F)(C(C)(C)C)C(C)(C)C)cc1)NC(=O)CCC(C(=O)O)N1CCN(CC(=O)O)CCN(CC(=O)O)CCN(CC(=O)O)CC1)C(=O)N[C@@H](CC(=O)O)C(=O)N[C@@H](Cc1ccccc1)C(N)=O (stereo partly drawn) [DOTAGA-MG-SiFA-20, DOTAGA-dap(SiFA)-glu-F11N] ({DOTAGA}-[dDap](Benzoyl(4-SiFtBu2))[dE][dE][dE][dE][dE][dE][dE]AYGW[Nle]DF-NH2) | – | −2.19 ± 0.08 | 58 ± 11
6 | CCCC[C@H](NC(=O)[C@H](Cc1c[nH]c2ccccc12)NC(=O)CNC(=O)[C@H](Cc1ccc(O)cc1)NC(=O)[C@H](C)NC(=O)[C@@H](CCC(=O)O)NC(=O)[C@@H](CCC(=O)O)NC(=O)[C@@H](CCC(=O)O)NC(=O)[C@@H](CCC(=O)O)NC(=O)[C@@H](CCC(=O)O)NC(=O)[C@@H](CCC(=O)O)NC(=O)[C@@H](CCC(=O)O)NC(=O)[C@@H](CCC(=O)O)NC(=O)[C@@H](CNC(=O)c1ccc([Si](F)(C(C)(C)C)C(C)(C)C)cc1)NC(=O)CCC(C(=O)O)N1CCN(CC(=O)O)CCN(CC(=O)O)CCN(CC(=O)O)CC1)C(=O)N[C@@H](CC(=O)O)C(=O)N[C@@H](Cc1ccccc1)C(N)=O (stereo partly drawn) [DOTAGA-MG-SiFA-21, DOTAGA-dap(SiFA)-(glu)2-F11N] ({DOTAGA}-[dDap](Benzoyl(4-SiFtBu2))[dE][dE][dE][dE][dE][dE][dE][dE]AYGW[Nle]DF-NH2) | – | −2.84 ± 0.04 | 55.3 ± 7.8
7 | CCCC[C@H](NC(=O)[C@H](Cc1c[nH]c2ccccc12)NC(=O)CNC(=O)[C@H](Cc1ccc(O)cc1)NC(=O)[C@H](C)NC(=O)CC[C@@H](NC(=O)CC[C@@H](NC(=O)CC[C@@H](NC(=O)CC[C@@H](NC(=O)CC[C@@H](NC(=O)CC[C@@H](NC(=O)CC[C@@H](NC(=O)[C@@H](CNC(=O)c1ccc([Si](F)(C(C)(C)C)C(C)(C)C)cc1)NC(=O)CCC(C(=O)O)N1CCN(CC(=O)O)CCN(CC(=O)O)CCN(CC(=O)O)CC1)C(=O)O)C(=O)O)C(=O)O)C(=O)O)C(=O)O)C(=O)O)C(=O)O)C(=O)N[C@@H](CC(=O)O)C(=O)N[C@@H](Cc1ccccc1)C(N)=O (stereo partly drawn) [DOTAGA-MG-SiFA-22, DOTAGA-dap(SiFA)-γ-glu-γ-F11N] | – | −2.16 ± 0.09 | 29.5 ± 1.9
8 | CCCC[C@H](NC(=O)[C@H](Cc1c[nH]c2ccccc12)NC(=O)CNC(=O)[C@H](Cc1ccc(O)cc1)NC(=O)[C@H](C)NC(=O)CC[C@@H](NC(=O)CC[C@@H](NC(=O)CC[C@@H](NC(=O)CC[C@@H](NC(=O)CC[C@@H](NC(=O)CC[C@@H](NC(=O)CC[C@@H](NC(=O)CC[C@@H](NC(=O)[C@@H](CNC(=O)c1ccc([Si](F)(C(C)(C)C)C(C)(C)C)cc1)NC(=O)CCC(C(=O)O)N1CCN(CC(=O)O)CCN(CC(=O)O)CCN(CC(=O)O)CC1)C(=O)O)C(=O)O)C(=O)O)C(=O)O)C(=O)O)C(=O)O)C(=O)O)C(=O)O)C(=O)N[C@@H](CC(=O)O)C(=O)N[C@@H](Cc1ccccc1)C(N)=O (stereo partly drawn) [DOTAGA-MG-SiFA-23, DOTAGA-dap(SiFA)-(γ-glu)2-γ-F11N] | – | −2.10 ± 0.06 | 20.4 ± 2
9 | CCCC[C@H](NC(=O)[C@H](Cc1c[nH]c2ccccc12)NC(=O)CNC(=O)[C@H](Cc1ccc(O)cc1)NC(=O)[C@H](C)NC(=O)CC[C@@H](NC(=O)CC[C@@H](NC(=O)CC[C@@H](NC(=O)CC[C@@H](NC(=O)[C@@H](CNC(=O)c1ccc([Si](F)(C(C)(C)C)C(C)(C)C)cc1)NC(=O)CC[C@@H](NC(=O)CC[C@@H](NC(=O)CC[C@@H](NC(=O)CCC(C(=O)O)N1CCN(CC(=O)O)CCN(CC(=O)O)CCN(CC(=O)O)CC1)C(=O)O)C(=O)O)C(=O)O)C(=O)O)C(=O)O)C(=O)O)C(=O)O)C(=O)N[C@@H](CC(=O)O)C(=O)N[C@@H](Cc1ccccc1)C(N)=O (stereo partly drawn) [DOTAGA-MG-SiFA-24, DOTAGA-(γ-glu)2-[dap(SiFA)^2]γ-F11N] ({DOTAGA-d(γGlu)-d(γGlu)-d(γGlu)}-[dDap](Benzoyl(4-SiFtBu2))[d(γGlu)][d(γGlu)][d(γGlu)][d(γGlu)]AYGW[Nle]DF-NH2) | – | −2.72 ± 0.05 | 66.6 ± 4.4
